Laboratory results published in the NIST ThermoML archive (doi:10.1021/je100821g).
± gives the expanded uncertainty stated by the source.

Tests used:
[1] = Liquid; for viscosity / mass density: 101.33 kPa; for viscosity: Concentric cylinders viscometry; for mass density: Vibrating tube method
[2] = xn = mol fraction of the nth substance listed; settings: 293.15 K, 101 kPa, Liquid; for viscosity: Concentric cylinders viscometry
[3] = excess molar enthalpy (molar enthalpy of mixing); xn = mol fraction of the nth substance listed; settings: 303 K, 101 kPa, Liquid, Calvet calorimetry

COC(C)(C)C [2-methoxy-2-methylpropane]
[1]
Settings | mass density [kg/m3] | vapor or sublimation pressure [kPa] | viscosity [mPa·s]
273.15 K | 760.4 ± 0.3 | – | 0.39 ± 0.005
283.15 K | 750.1 ± 0.3 | – | 0.36 ± 0.005
286.5 K | – | 20 ± 0.2 | –
291.3 K | – | 25 ± 0.21 | –
293.15 K | 739.9 ± 0.3 | – | 0.333 ± 0.005
295.5 K | – | 30 ± 0.22 | –
298.15 K | 734.4 ± 0.3 | – | 0.319 ± 0.005
299.2 K | – | 35 ± 0.23 | –
302.5 K | – | 40 ± 0.19 | –
303.15 K | 729.2 ± 0.3 | 41 ± 0.44 | 0.304 ± 0.005
305.45 K | – | 45 ± 0.28 | –
308.2 K | – | 50 ± 0.27 | –
310.8 K | – | 55 ± 0.29 | –
313.1 K | – | 60 ± 0.31 | –
313.15 K | 718.5 ± 0.3 | – | 0.278 ± 0.005
315.3 K | – | 65 ± 0.32 | –
317.4 K | – | 70 ± 0.33 | –
319.3 K | – | 75 ± 0.35 | –
321.1 K | – | 80 ± 0.36 | –
322.9 K | – | 85 ± 0.38 | –
324.5 K | – | 90 ± 0.39 | –
325.4 K | – | 92.5 ± 0.38 | –
326.2 K | – | 95 ± 0.4 | –
326.9 K | – | 97.2 ± 0.4 | –

ClC(Cl)Cl [trichloromethane] + COC(C)(C)C
Settings | excess molar enthalpy [kcal/mol] | mass density [kg/m3] | viscosity [mPa·s]
[2], x1 = 0.0527 | – | 768.1 ± 0.4 | 0.358 ± 0.005
[2], x1 = 0.0834 | – | 785.4 ± 0.4 | 0.372 ± 0.005
[2], x1 = 0.1841 | – | 842.6 ± 0.4 | 0.423 ± 0.005
[2], x1 = 0.2714 | – | 895.6 ± 0.3 | 0.47 ± 0.006
[2], x1 = 0.358 | – | 951.5 ± 0.3 | 0.514 ± 0.006
[2], x1 = 0.4511 | – | 1015 ± 0.3 | 0.56 ± 0.006
[2], x1 = 0.546 | – | 1083.8 ± 0.3 | 0.595 ± 0.006
[2], x1 = 0.6303 | – | 1148.9 ± 0.4 | 0.612 ± 0.007
[2], x1 = 0.724 | – | 1225.9 ± 0.4 | 0.62 ± 0.007
[2], x1 = 0.8108 | – | 1302.9 ± 0.5 | 0.618 ± 0.007
[2], x1 = 0.8948 | – | 1381.1 ± 0.6 | 0.613 ± 0.006
[2], x1 = 0.9515 | – | 1437.9 ± 0.7 | 0.609 ± 0.006
[2], x1 = 1 | – | 1488.4 ± 0.7 | 0.6 ± 0.006
[3], x1 = 0.038 | -0.0817 ± 0.00813 | – | –
[3], x1 = 0.068 | -0.159 ± 0.0136 | – | –
[3], x1 = 0.097 | -0.22 ± 0.0213 | – | –
[3], x1 = 0.101 | -0.244 ± 0.0229 | – | –
[3], x1 = 0.118 | -0.263 ± 0.0213 | – | –
[3], x1 = 0.154 | -0.287 ± 0.0232 | – | –
[3], x1 = 0.172 | -0.311 ± 0.0239 | – | –
[3], x1 = 0.219 | -0.382 ± 0.0311 | – | –
[3], x1 = 0.251 | -0.454 ± 0.0359 | – | –
[3], x1 = 0.39 | -0.502 ± 0.0406 | – | –
[3], x1 = 0.516 | -0.502 ± 0.0406 | – | –
[3], x1 = 0.669 | -0.43 ± 0.0335 | – | –
[3], x1 = 0.78 | -0.359 ± 0.0287 | – | –
[3], x1 = 0.864 | -0.191 ± 0.0158 | – | –
[3], x1 = 0.899 | -0.155 ± 0.0127 | – | –
[3], x1 = 0.931 | -0.115 ± 0.0098 | – | –
[3], x1 = 0.958 | -0.0669 ± 0.00621 | – | –
[3], x1 = 0.986 | -0.0359 ± 0.0043 | – | –
[3], x1 = 1 | 0 ± 0.000239 | – | –

COC(C)(C)C [2-methoxy-2-methylpropane] + ClC(Cl)Cl
x2 = 0
Settings | excess molar enthalpy [kcal/mol] | mass density [kg/m3] | viscosity [mPa·s]
[2] | – | 739.9 ± 0.4 | 0.333 ± 0.005
[3] | 0 ± 0.000239 | – | –

ClC(Cl)Cl [trichloromethane]
[1]
Settings | mass density [kg/m3] | vapor or sublimation pressure [kPa] | viscosity [mPa·s]
273.15 K | 1526 ± 0.3 | – | 0.713
283.15 K | 1507.1 ± 0.3 | – | 0.651
293.15 K | 1488.4 ± 0.3 | – | 0.6
298.15 K | 1478.8 ± 0.3 | – | 0.576
303.15 K | 1469.2 ± 0.3 | 32.2 ± 0.36 | 0.552
313.15 K | 1450 ± 0.3 | – | 0.509
318.15 K | 1440 ± 0.3 | – | 0.491
